No end group written: not given here.
Experiment: Stability of AWRK6 QC samples in rat plasma under storage conditions
Type: in vitro ADME
Details: for measured concentration of QC sample after storage / relative error of QC sample after storage: rat plasma QC, LC-MS/MS, n = 3; for measured concentration of QC sample after storage: mean ± SD
Experimental: The AWRK6 and IS were dissolved in water at 1.0 mg/mL for stock solution. The AWRK6 calibration standards at 0.05, 0.1, 0.5, 1, 2, 5, and 10 μg/mL were prepared by mixing 50 μL of working solution and 100 μL of blank plasma individually. QC samples of AWRK6 at 0.1, 0.5, and 5 μg/mL were prepared by the same method. The thawed plasma samples (100 μL) were mixed with 50 μL water (or QC), 50 μL IS (1 μg/mL), and 20 μL FA-water (25:75, v/v). A combination of plasma precipitation and liquid–liquid extraction was applied for the extraction of AWRK6 in samples. After adding 200 μL methanol and 100 μL dichloromethane, the mixtures were vortexed for 30 s and centrifuged at 14,000 g for 10 min. The supernatant was filtered by 0.22 μm membrane for LC-MS/MS analysis.
The method was validated for specificity, linearity, LOD, LOQ, LLOQ, precision, accuracy, recovery, matrix effect, and stability according to U.S. FDA guidelines. Specificity was determined using blank plasma samples from 6 rats. Linearity was accessed using calibration standards in triplicate within 3 consecutive days. LOD and LOQ were estimated as concentrations of AWRK6 which generated S/N value of 3 or 10, and they were verified by continuous evaluating the S/N value of 3 LOD samples or 6 LOQ samples. LLOQ was determined using 6 calibration standard samples at 0.05 μg/mL. Precision and accuracy were accessed using QC samples and repeated 6 times within 3 consecutive days. Recovery was calculated by comparing the respective peak areas of the QC samples with the blank plasma samples spiked after extraction (repeated 6 times). Matrix effect was evaluated by comparing the respective peak areas of the QC samples with standard solutions (AWRK6 and IS in water, respectively) at the same concentrations (repeated 6 times). Stability was analyzed using QC samples under different storage conditions including room temperature for 6 h, 3 freeze–thaw cycles, 4 °C for 12 h, and−20 °C for 7 days.

[1] = nominal 0.100 μg/mL, room temperature for 6 h
[2] = nominal 0.100 μg/mL, storage at 4 °C for 12 h
[3] = nominal 0.100 μg/mL, storage at −20 °C for 7 days
[4] = nominal 0.100 μg/mL, three freeze–thaw cycles
[5] = nominal 0.500 μg/mL, room temperature for 6 h
[6] = nominal 0.500 μg/mL, storage at 4 °C for 12 h
[7] = nominal 0.500 μg/mL, storage at −20 °C for 7 days
[8] = nominal 0.500 μg/mL, three freeze–thaw cycles
[9] = nominal 5.000 μg/mL, storage at 4 °C for 12 h
[10] = nominal 5.000 μg/mL, storage at −20 °C for 7 days
[11] = nominal 5.000 μg/mL, three freeze–thaw cycles

relative error of QC samples (stability acceptable) (rat plasma QC 0.1, 0.5, 5 μg/mL, room temperature for 6 h, 3 freeze–thaw cycles, and 4 °C for 12 h): < 12% | relative error of QC samples (significant degradation) (rat plasma QC 0.1, 0.5, 5 μg/mL, storage at −20 °C for 7 days): −16.94 to −34.74% | measured concentration of QC sample after storage [1]: 0.089 ± 0.007 µg/mL | relative error of QC sample after storage [1]: −6.315% | measured concentration of QC sample after storage [2]: 0.084 ± 0.013 µg/mL | relative error of QC sample after storage [2]: −11.579% | measured concentration of QC sample after storage [3]: 0.062 ± 0.018 µg/mL | relative error of QC sample after storage [3]: −34.737% | measured concentration of QC sample after storage [4]: 0.091 ± 0.008 µg/mL | relative error of QC sample after storage [4]: −4.210% | measured concentration of QC sample after storage [5]: 0.462 ± 0.021 µg/mL | relative error of QC sample after storage [5]: −4.742% | measured concentration of QC sample after storage [6]: 0.442 ± 0.015 µg/mL | relative error of QC sample after storage [6]: −8.866% | measured concentration of QC sample after storage [7]: 0.387 ± 0.047 µg/mL | relative error of QC sample after storage [7]: −20.206% | measured concentration of QC sample after storage [8]: 0.477 ± 0.016 µg/mL | relative error of QC sample after storage [8]: −1.649% | measured concentration of QC sample after storage [9]: 4.881 ± 0.301 µg/mL | relative error of QC sample after storage [9]: −1.040% | measured concentration of QC sample after storage [10]: 4.153 ± 0.442 µg/mL | relative error of QC sample after storage [10]: −16.940% | measured concentration of QC sample after storage [11]: 4.912 ± 0.049 µg/mL | relative error of QC sample after storage [11]: −0.409%
Substance: SWVGKHGKKFGLKKHKKH-NH2 (C-terminus assumed) [AWRK6]
